Values of other authors in patent US20200306172A1, “DEPIGMENTING DERMATOLOGICAL AND COSMETIC COMPOSITIONS” (NUNII LABORATOIRE, priority 2017, published 2020).
Like-named read-outs stand apart in the source and are kept apart here.

Tests used:
[1] = powder raw material
[2] = pH 4 to pH 6

| SMILES | solubility [1] | depigmenting activity (kojic acid at 1%) | depigmenting activity (kojic acid at 4% dose) | stability [2] |
| --- | --- | --- | --- | --- |
| Oc1ccc(/C=C/c2cc(O)cc(O)c2)cc1 [Trans-resveratrol] | soluble in polyethylene glycols and propylene glycols |  |  |  |
| O=c1cc(CO)occ1O [kojic acid] |  | no depigmenting activity | shows a depigmenting effect |  |
| CCOC1=C(O)C(=O)O[C@@H]1[C@@H](O)CO [3-O-ethyl-L-ascorbic acid] | soluble in water and alcohol |  |  | more stable than ascorbic acid and its other derivatives |
| NC(=O)c1cccnc1 [Niacinamide] | readily soluble in water, alcohol or glycerol |  |  |  |
| OCC1O[C@H](Oc2ccc(O)cc2)C(O)C(O)[C@@H]1O (stereo partly drawn) [α-arbutin] | readily soluble in water |  |  |  |
